Laboratory results reported in patent EP1129187B1, “NEW FAMILY OF MAMMALIAN POTASSIUM CHANNELS, THEIR CLONING AND THEIR USE, ESPECIALLY FOR THE SCREENING OF DRUGS” (CENTRE NATIONAL DE LA RECHERCHE SCIENTIFIQUE (CNRS), priority 1998, dated 2000).
Where two headings read alike, the source gives them in different places.

Key:
[1] = target: T1, human TWIK-1 K+ channel, SEQ ID NO: 2 (Homo sapiens, UniProt O00180); assay: TWIK-1 K+ currents, two-electrode voltage clamp in Xenopus oocytes injected with TWIK-1 cRNA; format: cell-based
T1 construct: expressed in transfected cells; host or cells: Xenopus laevis oocytes injected with cRNA transcribed from pEXO-TWIK-1
T1 sequence (O00180 1-336): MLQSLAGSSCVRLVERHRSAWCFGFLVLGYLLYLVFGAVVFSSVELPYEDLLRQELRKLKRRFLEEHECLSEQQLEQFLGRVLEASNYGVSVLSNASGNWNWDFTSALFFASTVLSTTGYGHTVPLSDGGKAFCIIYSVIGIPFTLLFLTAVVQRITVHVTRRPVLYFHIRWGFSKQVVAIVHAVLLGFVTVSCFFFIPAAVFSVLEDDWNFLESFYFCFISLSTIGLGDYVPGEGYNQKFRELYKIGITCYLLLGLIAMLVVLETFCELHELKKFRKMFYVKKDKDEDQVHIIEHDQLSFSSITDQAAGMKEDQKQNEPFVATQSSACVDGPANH
Method: For the functional study, the coding sequence of TWIK-1 was inserted between the noncoding sequences 5' and 3' of Xenopus globin in the vector pEXO (Lingueglia, E. et al., 1993, J. Biol. Chem., 269, 13736-13739). A complementary RNA (cRNA) was transcribed of this construction and injected in the oocytes of X laevis. In a 0.3ml perfusion chamber, a single oocyte was impaled on two standard glass microelectrodes (0.5 - 2.0 MW) charged with 3 M KCI and maintained under voltage-clamp with a Dagan TEV200 amplifier. The bath solution contained 98 mM KCl,1.8 raM CaCl2 […] and 5 mM HEPES at pH 7.4 with KOH. Stimulation of the preparation, data acquisition and analyses were carried out with the pClamp program (Axon Instruments) USA3.
Intracellular acidification of the oocytes was produced using two methods: • superfusion with a solution enriched in CO2 which produces acidification by a mechanism involving the bicarbonate transport system (Guillemare, E. et al., 1995, Mol. Pharmacol., 47, 588-594); • treatment with dinitrophenol (DNP), which is a metabolic inhibitor that decouples the H+ gradient in mitochondria and induces internal acidity (Pedersen, P. L. and Carafoli, E., 1997, Trends Biol. Sci., 12, 146-189).
Phosphorylation or dephosphorylation of specific amino acid residues is an important mechanism of regulation of the ionic channels (Levitan, I. B., 1994, Annul Rev. Physiol., 56, 193-212).

[2] = target: T2, human TASK-2 K+ channel, SEQ ID NO: 28 (Homo sapiens, UniProt O95279); assay: TASK-2 currents elicited by voltage pulses to +50 mV, whole cell recording in transfected COS cells; format: cell-based
T2 construct: expressed in transfected cells; host or cells: COS cells transiently transfected with pIREScd8-TASK-2 (DEAE-dextran)
T2 sequence (O95279 1-499): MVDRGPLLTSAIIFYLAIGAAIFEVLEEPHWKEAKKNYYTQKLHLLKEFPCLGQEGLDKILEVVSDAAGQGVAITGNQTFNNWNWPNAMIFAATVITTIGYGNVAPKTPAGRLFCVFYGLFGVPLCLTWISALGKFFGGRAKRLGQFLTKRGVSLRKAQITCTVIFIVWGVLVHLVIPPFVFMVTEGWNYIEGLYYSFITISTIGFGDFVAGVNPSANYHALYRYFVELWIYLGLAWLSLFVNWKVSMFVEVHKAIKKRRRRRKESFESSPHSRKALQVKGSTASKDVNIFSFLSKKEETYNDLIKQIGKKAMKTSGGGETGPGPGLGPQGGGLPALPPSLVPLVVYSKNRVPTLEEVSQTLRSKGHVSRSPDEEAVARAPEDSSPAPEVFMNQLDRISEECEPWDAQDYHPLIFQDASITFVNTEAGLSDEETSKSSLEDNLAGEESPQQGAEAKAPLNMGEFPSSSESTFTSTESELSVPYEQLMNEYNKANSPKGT
Method: For patch clamp analyses, a NotI/EcoRI fragment of 3.2 kb was excised from pBS-TASK 2 and subcloned into the pIRES-CD8 vectorto givepIREScdB-TASK-2. ThepIRES-CD8 vector was obtained by replacing the neo^R gene in the original vector pIRESneo (Clontech) by the coding sequence of the T type lymphocyte's surface marker CD8. COS cells were seeded at a density of 20,000 cells per 35 mm dishes 24 h prior to transfection. Cells were then transiently transfected by the classical DEAE-dextian method with 1 µg of prREScdB-TASK-2 plasmid per 35 mm dish. Transiently-transfected cells were visualized 48 h after transfection using the anti-CD8 antibody coated beads method (24). For whole cell recordings, the internal solution contained 150 mM KCI, 3 mM MgCl2, 5 mM EGTA, and 10 mM HEPES at pH 7.2 with KOH, and he external solution 150 mM NaCl, 5 mM KCI, 3 mM MgCl2 1 mM CaCl2, 10 mM HEPES at pH 7.4 with NaOH.
The effects of various pharmacological agents on currents elicited by voltage pulses to +50 mV have been studied in TASK-2-exprcssing. COS cells.

[3] = target: T1, human TWIK-1 K+ channel, SEQ ID NO: 2; assay: TWIK-1 single channel activity, excised patch from Xenopus oocytes; format: cell-based; conditions: perfusion of the excised patch with 10 mM
Method: The pipettes were filled with a strong K+ solution (40 mM KCl, 100 mM of potassium methane sulfonate, 1.8 mM CaCl2, 2 m M MgCl2 and 5 mM HEPES adjusted to pH 7.4 with KOH). 100 µM of GdCl3 was added to the pipette solution to inhibit the action of the […]. The inside-out patches were perfused with a solution containing 140 mM KC1,10 mM CaCl2, 5 mM HEPES adjusted to pH 7.2 with KOH and 5 m M EGTA added daily. The single channel signals were filtered at 3.5 kHz and analyzed with the Biopatch program (Big-Logic, Grenoble, France).
With 3 mM of internal Mg^2+, the mean duration of opening at +80 mV is 1.9 ms and the unitary conductance is 19 +/- 1 pS (Figure 5c). At -80 mV, the channels are oscillating with a mean duration of opening of 0.3 ms, and a conductance value in creasing to 34 pS. […] In contrast to numerous channels which require the presence of ATP for their activity in the excised patch configuration, ATP is not required for the expression of TWIK-1.

[4] = target: human TASK1 K+ channel, SEQ ID NO: 4 (Homo sapiens, UniProt O14649); assay: TASK1 currents elicited by voltage pulses to +50 mV, two-electrode voltage clamp in Xenopus oocytes; format: cell-based; conditions: for inhibition at 100 µM: read-out: TASK1 currents inhibited
Chain of human TASK1 K+ channel, SEQ ID NO: 4 (O14649 whole entry, the tested form may be a part): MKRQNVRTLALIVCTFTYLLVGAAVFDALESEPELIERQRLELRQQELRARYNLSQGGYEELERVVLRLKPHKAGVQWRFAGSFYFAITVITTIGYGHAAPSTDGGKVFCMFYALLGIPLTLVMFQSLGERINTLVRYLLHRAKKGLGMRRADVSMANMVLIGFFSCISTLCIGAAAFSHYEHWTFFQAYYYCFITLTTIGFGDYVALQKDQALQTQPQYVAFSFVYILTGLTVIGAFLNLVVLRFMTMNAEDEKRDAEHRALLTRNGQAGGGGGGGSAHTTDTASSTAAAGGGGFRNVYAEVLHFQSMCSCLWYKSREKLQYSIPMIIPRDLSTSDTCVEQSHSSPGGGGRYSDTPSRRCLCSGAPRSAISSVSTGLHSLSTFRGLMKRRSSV
Method: For functional studies, TASK1 cRNAs were injected into Xenopus oocytes. This was accomplished by subcloning a 2480 bp SmaI/XhoI fragment from pBS-hT ASK containing 14 bp of 5' UTR, the coding sequence and the entire 3' UTR into the pEXO vector (Lingueglia et al., 1993) to give pEXO-TASK1. Capped-cRNAs were synthesised in vitro from the linearized plasmid by using the T7 RNA polymerase (Stratagene). Xenopus laevis were purchased from CRBM (Montpellier, France). Preparation and cRNA injection of oocytes has been described elsewhere (Guillemare et al., 1992). Oocytes were used for electrophysiological studies 2 to 4 days following injection (20 ng/oocyte). In a 0.3 ml perfusion chamber, a single oocyte was impaled with two standard microelectrodes (1-2.5 Mn resistance) filled with 3 M KCI and maintained under voltage clamp by using a Dagan TEV 200 amplifier, in standard ND96 solution (96 mM NaC1. 2 mM KCI, 1.8 mM CaCI2, 2 mM MgCl2, 5 mM HEPES, pH 7.4 with NaOH). In some experiments, NaCl was substituted with TMA Cl (Tetra Methyl Ammonium Chloride). Stimulation of the preparation, data acquisition, and analysis were performed using pClamp software (Axon instruments, USA). Drugs were applied externally by addition to the superfusate (flow rate: 3 ml/min) or intracellularly injected by using a pressure microinjector (Inject+Matic, Switzedand). All experiments were performed at room temperature (21-22 °C).
Figure 12A presents the I-V relationships of the current in K^+-rich solutions ranging from 2 mM to 98 mM. […] The theoretical I-V relationships in various [K^+]out calculated according to the Goldman-Hodgkin-Katz current equation are shown in Figure 12D. […] The effect of various pharmacological agents on currents elicited by voltage pulses to +50 mV has been studied in TASK1-expressing oocytes.

[5] = target: TWIK-1 (Tandem of P domains in a Weak Inward rectifying K+ channel) (human); assay: cell-based or functional assay
[6] = read-out: inhibition of TWIK-1 currents
[7] = COS, read-out: inhibition of the TASK-2 current

Chain of charybdotoxine (P13487 23-59 limits assumed): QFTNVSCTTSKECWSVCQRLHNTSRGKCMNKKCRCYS

## Nc1ccncc1 [4-aminopyridine]
[1]; at 1 mM, read-out: inhibition of TWIK-1 currents
  inhibition at 1000 µM: < 10%
[2]; 100 µM
  effect on TASK-2 currents: inactive

## Nc1ncnc2c1nc(Cl)n2[C@@H]1O[C@@H]2COP(=O)(O)O[C@H]2[C@H]1O [8-Cl-AMPc, 8-chloro cAMP]
[1]; 300 µM, activation of protein kinase A
  effect on the activity of TWIK-1: does not affect
[2]; perfusion of 500 µM
  sensitivity of TASK-2 currents: insensitive

## CNc1ccc2oc(C[C@H]3O[C@@]4(CC[C@H]3C)O[C@H]([C@H](C)C(=O)c3ccc[nH]3)[C@H](C)C[C@H]4C)nc2c1C(=O)O [A23187]
[1]
  effect on the properties of the TWIK-1 channel: without effect

## Nc1ncnc2c1ncn2[C@@H]1O[C@H](COP(=O)(O)OP(=O)(O)OP(=O)(O)O)[C@@H](O)[C@H]1O [ATP]
[3]
  effect on the activity of the TWIK-1 channel: does not induce any effect

## O=[N+]([O-])c1ccc(O)c([N+](=O)[O-])c1 [DNP, dinitrophenol]
[1]; DNP 1 mM, intracellular acidification, % of the control amplitude, read-out: reduction in the TWIK-1 currents
  inhibition at 1000 µM: 80%

## O=C(O)CN(CCOCCOCCN(CC(=O)O)CC(=O)O)CC(=O)O [EGTA]
[4]; injection of 100 mM, internal Ca2+ change
  sensitivity of TASK1 currents: insensitive

## CC(C)Cn1c(=O)n(C)c(=O)c2[nH]cnc21 [IBMX]
[2]; IBMX 1 mM in a cocktail with forskolin 10 µM, increasing intracellular cAMP
  sensitivity of TASK-2 currents: insensitive
[4]; IBMX 1 mM perfused together with forskolin 10 µM, activation of adenyl cyclase
  sensitivity of TASK1 currents: insensitive

## CCCCCCCCCC(=O)O[C@@H]1[C@@H](C)[C@@]2(O)[C@@H](C=C(CO)C[C@@]3(O)C(=O)C(C)=C[C@@H]23)[C@@H]2C(C)(C)[C@]12OC(=O)CCCCCCCCC [PDA, 4α-phorbol-12, 13 didecanoate]
[1]
  effect on TWIK-1 currents: no effect

## CC[N+](CC)(CC)CC [TEA, tetraethylammonium]
[1]; [6]
  inhibition at 20000 µM: 30%
[2]; 1 mM
  effect on TASK-2 currents: inactive

## CCCCc1oc2ccccc2c1C(=O)c1cc(I)c(OCCN(CC)CC)c(I)c1 [amiodarone]
[1]; [6]
  inhibition at 100 µM: < 10%

## CCCCC/C=C\C/C=C\C/C=C\C/C=C\CCCC(=O)O [arachidonic acid]
[2]; 10 µM
  sensitivity of TASK-2: not sensitive

## CCCCN1CCCCC1C(=O)Nc1c(C)cccc1C (stereo not shown) [bupivacaïne]
[2]; COS, 1 mM, n = 4, read-out: inhibition of the TASK-2 current
  inhibition at 1000 µM: 80.9%

## CCCCCCC[N+](CC)(CC)CCCCc1ccc(Cl)cc1 [clofilium]
[1]
  inhibition at 30 µM: < 10%

## CC1(C)Oc2ccc(C#N)cc2C(N2CCCC2=O)C1O (stereo not shown) [cromakaline]
[1]; 140 µM
  sensitivity of the TWIK-1 channel to K+ channel opener: not sensitive

## COc1ccc(Cl)cc1C(=O)NCCc1ccc(S(=O)(=O)NC(=O)NC2CCCCC2)cc1 [glibenclamide]
[1]
  inhibition at 30 µM: < 10%

## O=P(O)(O)O[C@@H]1[C@H](O)[C@H](O)[C@@H](OP(=O)(O)O)[C@H](OP(=O)(O)O)[C@H]1O [inositol triphosphate]
[4]; injection of 1 mM, internal Ca2+ change
  sensitivity of TASK1 currents: insensitive

## CCN(CC)CC(=O)Nc1c(C)cccc1C [lidocaine]
[2]; [7]
  inhibition at 1000 µM: 60.4 ± 1.5%

## CC(N/C(=N\C#N)Nc1ccncc1)C(C)(C)C (stereo not shown) [pinacidil]
[1]; 100 µM
  sensitivity of the TWIK-1 channel to K+ channel opener: not sensitive

## CCN(CC)CCCC(C)Nc1c2ccc(Cl)cc2nc2ccc(OC)cc12 (stereo not shown) [quinacrine]
[4]
  inhibition at 100 µM: < 20%

## C=C[C@H]1C[N@@]2CC[C@H]1C[C@@H]2[C@@H](O)c1ccnc2ccc(OC)cc12 [quinidine]
[4]
  inhibition at 100 µM: < 20%

## C=C[C@H]1C[N@@]2CC[C@H]1C[C@H]2[C@H](O)c1ccnc2ccc(OC)cc12 [quinine]
[2]
  IC50: 22.4 ± 1.8 µM
[2]; [7]
  inhibition at 100 µM: 65 ± 3.8%
[4]
  inhibition at 100 µM: < 20%

## C1CCC2(C1)C1CN(CC3CC3)CC2CN(CC2CC2)C1 [tedisamil]
[1]; at 100 µM, read-out: inhibition of TWIK-1 currents
  inhibition at 100 µM: 30%

## apamin (from UniProt P01500 28-45) (peptide)
[5]
  inhibition of TWIK-1 K+ currents (two-electrode voltage clamp, Xenopus oocytes): < 10%

## charybdotoxine (from UniProt P13487 23-59) (peptide)
[5]
  inhibition of TWIK-1 K+ currents (two-electrode voltage clamp, Xenopus oocytes): < 10%

## dedrotoxine (peptide)
[5]
  inhibition of TWIK-1 K+ currents (two-electrode voltage clamp, Xenopus oocytes): < 10%
